# Laboratory results reported in US10988459B2 (priority 2015, dated 2021).
# Molecular target: human RIP1 kinase domain (2-375) (Homo sapiens (Human), UniProt Q13546)
# Assay: biochemical
# Format: biochemical
# Details: Table 3; apparent Ki (Morrison tight-binding fit); 50 nM RIP1 kinase domain, 50 uM ATP, 2 hours incubation; read-out: Ki
# Procedure, shortened: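 50 nM purified kinase domain from baculovirus-infected insect cells, incubated 2 h with compound in 50 mM Hepes pH 7.5, 30 mM MgCl2, 1 mM DTT, 50 uM ATP, 0.002% Brij-35, 0.5% DMSO. ADP formation read by Transcreener FP at 633 nm excitation. Ki^app fitted with the Morrison tight-binding equation.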
# Chain of human RIP1 kinase domain (2-375) (Q13546 2-375): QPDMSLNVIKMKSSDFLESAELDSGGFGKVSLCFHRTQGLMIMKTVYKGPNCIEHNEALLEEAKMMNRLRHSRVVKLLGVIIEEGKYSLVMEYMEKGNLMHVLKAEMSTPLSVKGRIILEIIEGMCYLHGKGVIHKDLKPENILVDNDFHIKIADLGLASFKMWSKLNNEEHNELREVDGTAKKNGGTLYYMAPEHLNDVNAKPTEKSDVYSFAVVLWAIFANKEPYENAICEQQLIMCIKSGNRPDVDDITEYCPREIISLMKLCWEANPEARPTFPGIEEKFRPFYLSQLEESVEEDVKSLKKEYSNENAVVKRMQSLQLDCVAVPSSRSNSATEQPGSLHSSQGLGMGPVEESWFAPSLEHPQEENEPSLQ
row,Ki,SMILES
1,536 nM,"Cc1cc2n(n1)CC[C@H](NC(=O)c1ncn3ccc(C(F)(F)F)cc13)C(=O)N2C (stereo in doubt) [Example 337, N-(2,4-dimethyl-5-oxo-5,6,7,8-tetrahydro-4H-pyrazolo[1,5-a][1,3]diazepin-6-yl)-7-(trifluoromethyl)imidazo[1,5-a]pyridine-1-carboxamide]"
2,231 nM,"CN1C(=O)[C@@H](NC(=O)c2ncn3ccc(C(F)(F)F)cc23)CCn2nccc21 [Example 336, (S)-N-(4-methyl-5-oxo-5,6,7,8-tetrahydro-4H-pyrazolo[1,5-a][1,3]diazepin-6-yl)-7-(trifluoromethyl)imidazo[1,5-a]pyridine-1-carboxamide]"

# Same assay, conditions: Table 5; apparent Ki (Morrison tight-binding fit); 50 nM RIP1 kinase domain, 50 uM ATP, 2 hours incubation; read-out: Ki
row,Ki,SMILES
1,44 nM,"Cc1cc2n(n1)CC[C@H](NC(=O)c1cn(Cc3ccccc3)cn1)C(=O)N2C [Example 751, 1-benzyl-N-[(6S)-2,4-dimethyl-5-oxo-7,8-dihydro-6H-pyrazolo[1,5-a][1,3]diazepin-6-yl]imidazole-4-carboxamide]"

# Same assay, conditions: human RIP1 kinase domain (2-375), 50 uM ATP, 2 hours incubation, Transcreener ADP assay; read-out: RIP1 Ki
row,Ki,SMILES
1,4500 nM,"CN1C(=O)[C@@H](NC(=O)c2n[nH]c3c2C[C@@H](C(F)(F)F)CC3)COc2c1cnn2C [Example 188, (S)—N—((S)-1,4-dimethyl-5-oxo-4,5,6,7-tetrahydro-1H-pyrazolo[3,4-b][1,4]oxazepin-6-yl)-5-(trifluoromethyl)-4,5,6,7-tetrahydro-1H-indazole-3-carboxamide]"
2,36.3 nM,"Cc1cc2n(n1)CC[C@H](NC(=O)c1ncn(CC3CCCC3)n1)C(=O)N2C [Example 162, (S)-1-(cyclopentylmethyl)-N-(2,4-dimethyl-5-oxo-5,6,7,8-tetrahydro-4H-pyrazolo[1,5-a][1,3]diazepin-6-yl)-1H-1,2,4-triazole-3-carboxamide]"
3,133 nM,"CN1C(=O)C(NC(=O)c2nnc(Cc3ccccc3)[nH]2)CCn2nc3ccccc3c21 (centres unmarked) [Example 108, 5-benzyl-N-(1-methyl-2-oxo-2,3,4,5-tetrahydro-1-[1,3]diazepino[1,2-b]indazol-3-yl)-4H-1,2,4-triazole-3-carboxamide]"
4,131 nM,"CN1C(=O)[C@@H](NC(=O)c2n[nH]c3c2CC(c2ccc(F)c(F)c2)OC3)COc2ccccc21 (stereo partly drawn) [Example 206, 5-(3,4-difluorophenyl)-N—((S)-5-methyl-4-oxo-2,3,4,5-tetrahydrobenzo[b][1,4]oxazepin-3-yl)-1,4,5,7-tetrahydropyrano[3,4-c]pyrazole-3-carboxamide]"
5,1400 nM,"CN1C(=O)C(NC(=O)c2n[nH]c3c2C[C@@H](C(F)(F)F)CC3)CCn2ccnc21 (stereo partly drawn) [Example 176, (5S)—N-(9-methyl-8-oxo-6,7,8,9-tetrahydro-5H-imidazo[1,2-a][1,3]diazepin-7-yl)-5-(trifluoromethyl)-4,5,6,7-tetrahydro-1H-indazole-3-carboxamide]"
6,16.2 nM,"CN1C(=O)[C@@H](NC(=O)c2ncn(Cc3ccccc3)n2)CCn2nc(C3CC3)cc21 [Example 171, (S)-1-benzyl-N-(2-cyclopropyl-4-methyl-5-oxo-5,6,7,8-tetrahydro-4H-pyrazolo[1,5-a][1,3]diazepin-6-yl)-1H-1,2,4-triazole-3-carboxamide]"
7,34.6 nM,"CN1C(=O)[C@@H](NC(=O)c2nnc(Cc3cccc(F)c3F)[nH]2)CCn2nccc21 [Example 99, (S)-5-(2,3-difluorobenzyl)-N-(4-methyl-5-oxo-5,6,7,8-tetrahydro-4H-pyrazolo[1,5-a][1,3]diazepin-6-yl)-4H-1,2,4-triazole-3-carboxamide]"
8,125 nM,"CN1C(=O)[C@@H](NC(=O)c2nnn3c2C[C@@H](C(F)(F)F)CC3)COc2ccccc21 [Example 150, (S)-N-((S)-5-methyl-4-oxo-2,3,4,5-tetrahydrobenzo[b][1,4]oxazepin-3-yl)-5-(trifluoromethyl)-4,5,6,7-tetrahydro-[1,2,3]triazolo[1,5-a]pyridine-3-carboxamide]"
9,212 nM,"CN1C(=O)C(NC(=O)c2nnc(Cc3ccccc3)[nH]2)CCn2ccnc21 (centres unmarked) [Example 175, 5-benzyl-N-(9-methyl-8-oxo-6,7,8,9-tetrahydro-5H-imidazo[1,2-a][1,3]diazepin-7-yl)-4H-1,2,4-triazole-3-carboxamide]"

# Same assay, conditions: human RIP1 kinase domain (2-375), Transcreener ADP assay, 50 uM ATP, 2 hours incubation; read-out: RIP1 Ki
row,SMILES,Ki
1,"Cc1cc2n(n1)CCC(NC(=O)c1ncn(CC3CC(F)(F)C3)n1)C(=O)N2C (centres unmarked) [Example 248, 1-((3,3-difluorocyclobutyl)methyl)-N-(2,4-dimethyl-5-oxo-5,6,7,8-tetrahydro-4H-pyrazolo[1,5-a][1,3]diazepin-6-yl)-1H-1,2,4-triazole-3-carboxamide]",1100 nM
2,"CCC1(C)OCc2cnc(C(=O)N[C@H]3COc4ccccc4N(C)C3=O)nc21 (stereo partly drawn) [Example 310, 7-ethyl-7-methyl-N—((S)-5-methyl-4-oxo-2,3,4,5-tetrahydrobenzo[b][1,4]oxazepin-3-yl)-5,7-dihydrofuro[3,4-d]pyrimidine-2-carboxamide]",37.2 nM
3,"CC(c1ccc(F)cc1)n1cnc(C(=O)N[C@H]2CCn3nc(C4CC4)cc3N(C)C2=O)n1 (stereo in doubt) [Example 290, (S)—N-(2-cyclopropyl-4-methyl-5-oxo-5,6,7,8-tetrahydro-4H-pyrazolo[1,5-a][1,3]diazepin-6-yl)-1-(1-(4-fluorophenyl)ethyl)-1H-1,2,4-triazole-3-carboxamide]",117 nM
4,"CCCC1(C)OCc2cnc(C(=O)N[C@H]3COc4ccccc4N(C)C3=O)nc21 (stereo partly drawn) [Example 309, 7-methyl-N—((S)-5-methyl-4-oxo-2,3,4,5-tetrahydrobenzo[b][1,4]oxazepin-3-yl)-7-propyl-5,7-dihydrofuro[3,4-d]pyrimidine-2-carboxamide]",52.8 nM

# Further lines, results first:
row,Ki,SMILES
1,67 nM,"CN1C(=O)[C@@H](NC(=O)c2ncn(Cc3ccc(F)c(F)c3)n2)CCn2nc([C@@H]3CC3(F)F)cc21 [Example 321, 1-(3,4-difluorobenzyl)-N—((S)-2-((S)-2,2-difluorocyclopropyl)-4-methyl-5-oxo-5,6,7,8-tetrahydro-4H-pyrazolo[1,5-a][1,3]diazepin-6-yl)-1H-1,2,4-triazole-3-carboxamide]"
2,103 nM,"Cc1nn2c(c1C)N(C)C(=O)[C@@H](NC(=O)c1nnc(Cc3ccc(F)cc3)[nH]1)CC2 [Example 330, (S)-5-(4-fluorobenzyl)-N-(2,3,4-trimethyl-5-oxo-5,6,7,8-tetrahydro-4H-pyrazolo[1,5-a][1, 3]diazepin-6-yl)-4H-1,2,4-triazole-3-carboxamide]"

# Same assay, conditions: tight-binding apparent inhibition constant; human RIP1 kinase domain (2-375) 50 nM, 50 uM ATP, 2 hours; read-out: Ki
row,Ki,SMILES
1,13.7 nM,"CN1C(=O)[C@@H](NC(=O)c2nc3n(n2)[C@H](C(F)(F)F)CCC3)COc2ccccc21 (racemic) [Example 426, (S)—N—((S)-5-methyl-4-oxo-2,3,4,5-tetrahydrobenzo[b][1,4]oxazepin-3-yl)-5-(trifluoromethyl)-5,6,7,8-tetrahydro-[1,2,4]triazolo[1,5-a]pyridine-2-carboxamide]"
2,36.5 nM,"O=C(N[C@H]1COc2cc(F)cc(F)c2NC1=O)c1nc2cccc(C(F)(F)F)n2n1 [Example 417, (S)—N-(6,8-difluoro-4-oxo-2,3,4,5-tetrahydrobenzo[b][1,4]oxazepin-3-yl)-5-(trifluoromethyl)-[1,2,4]triazolo[1,5-a]pyridine-2-carboxamide]"
3,29.5 nM,"CCC1CCCc2nc(C(=O)N[C@H]3COc4ccccc4N(C)C3=O)nn21 (stereo partly drawn) [Example 383, 5-ethyl-N—((S)-5-methyl-4-oxo-2,3,4,5-tetrahydrobenzo[b][1,4]oxazepin-3-yl)-5,6,7,8-tetrahydro-[1,2,4]triazolo[1,5-a]pyridine-2-carboxamide]"
4,36 nM,"CN1C(=O)[C@@H](NC(=O)c2nc3cccc(-c4cnn(C)c4)n3n2)COc2ccccc21 [Example 398, (S)-5-(1-methyl-1H-pyrazol-4-yl)-N-(5-methyl-4-oxo-2,3,4,5-tetrahydrobenzo[b][1,4]oxazepin-3-yl)-[1,2,4]triazolo[1,5-a]pyridine-2-carboxamide]"
5,20 nM,"CN1C(=O)[C@@H](NC(=O)c2nc3n(n2)[C@@H](c2ccccc2)CC3)CCn2nccc21 (single isomer, unassigned) [Example 624]"
6,83 nM,"CN1C(=O)[C@@H](NC(=O)c2ncc3c(n2)C2(CCCOC2)OC3)COc2ccccc21 (stereo partly drawn) [Example 511, N-[(3S)-5-methyl-4-oxo-2,3-dihydro-1,5-benzoxazepin-3-yl]spiro[5H-furo[3,4-d]pyrimidine-7,3′-tetrahydropyran]-2-carboxamide]"
7,92 nM,CN1C(=O)[C@@H](NC(=O)c2ncn(C[C@H]3C[C@@H](C(F)(F)F)C3)n2)CCn2nccc21 [Example 493]
8,56 nM,"CN1C(=O)[C@@H](NC(=O)c2nnc(Cc3ccccc3)[nH]2)CCn2nc([C@H]3CC3(F)F)cc21 (racemic) [Example 672, 5-benzyl-N-[rac-(6S)-4-methyl-5-oxo-2-[rac-(1R)-2,2-difluorocyclopropyl]-7,8-dihydro-6H-pyrazolo[1,5-a] [1,3]diazepin-6-yl]-4H-1,2,4-triazole-3-carboxamide]"
9,269 nM,"CCc1cccc2nc(C(=O)N[C@H]3CCn4nccc4N(C)C3=O)nn12 [Example 374, (S)-5-ethyl-N-(4-methyl-5-oxo-5,6,7,8-tetrahydro-4H-pyrazolo[1,5-a][1,3]diazepin-6-yl)-[1,2,4]triazolo[1,5-a]pyridine-2-carboxamide]"
10,5.1 nM,"Cc1cc2n(n1)CC[C@H](NC(=O)c1ncn(Cc3cccc(Cl)c3Cl)n1)C(=O)N2C [Example 472, 1-[(2,3-dichlorophenyl)methyl]-N-(6S)-2,4-dimethyl-5-oxo-7,8-dihydro-6H-pyrazolo[1,5-a][1,3]diazepin-6-yl-1,2,4-triazole-3-carboxamide]"
11,80 nM,"Cc1ncc2n1CC[C@@H](NC(=O)c1ncn(Cc3cc(F)ccc3F)n1)C(=O)N2C [Example 577, 1-[(2,5-difluorophenyl)methyl]-N-(3R)-1,7-dimethyl-2-oxo-4,5-dihydro-3H-imidazo[1,5-a][1,3]diazepin-3-yl-1,2,4-triazole-3-carboxamide]"
